Results on four molecules are retold here after US5061794A, “Cephalosporin derivatives, and antibacterial agents” (priority 1986, dated 1991).

Assay [1] has as its system E. coli CSH(RE45). The experiment in a line: microbe, parasite or virus in culture. The format is cell-based. The conditions noted are these: Escherichia coli, 16 h, read-out: Minimum Inhibitory Concentration (MIC), *E. coli CSH(RE45), lactamase-producing strain; 10^6 CFU/ml. In outline:
(§1)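 MIC values (μg/ml) come from Mueller Hinton agar dilution plates inoculated with overnight-grown bacteria at 10^6 CFU/ml and kept at 37° C. for 16 hours.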

Assay [2] deals with E. coli CSH2 (RK1). The experiment in a line: microbe, parasite or virus in culture. Format: cell-based. The conditions noted are these: Escherichia coli, 16 h, read-out: Minimum Inhibitory Concentration (MIC), *E. coli CSH2 (RK1), lactamase-producing strain; 10^6 CFU/ml. In outline:
as §1

Assay [3] relates to E. cloacae 963. The experiment in a line: in vitro antibacterial activity, agar plate dilution method (MIC). The format is cell-based. The note with it: Enterobacter cloacae, 16 h; E. cloacae 963; 10^6 CFU/ml; read-out: Minimum Inhibitory Concentration (MIC). In outline: as §1
Assay [4] has as its system E. cloacae Nek 39. The description is as above. The format is cell-based. The conditions noted are these: Enterobacter cloacae, NEK39, 16 h, 10^6 CFU/ml. In a few lines:
as §1

Assay [5] relates to E. coli GN5482. The assay is described as above. Format: cell-based. The conditions noted are these: Escherichia coli. In outline: as §1
Assay [6] concerns E. coli NIHJ JC2. Described as above. Format: cell-based. The note with it: Escherichia coli. In a few lines: as §1
Assay [7] concerns K. oxytoca GN10650. The assay is described as above. The format is cell-based. The note with it: Klebsiella oxytoca, 10^6 CFU/ml. In a few lines:
as §1

Assay [8] has as its system K. pneumoniae No. 42. The assay is described as above. The format is cell-based. The conditions noted are these: Klebsiella pneumoniae, 16 h; *K. pneumoniae No. 42, lactamase-producing strain; 10^6 CFU/ml; read-out: Minimum Inhibitory Concentration (MIC). In outline: as §1
Assay [9] has as its system K. pneumoniae PCI-602. The assay is described as above. Format: cell-based. The note with it: Klebsiella pneumoniae, PCI602, 16 h, 10^6 CFU/ml. In a few lines: as §1
Assay [10] deals with M. morganii GN5407. Described as above. The format is cell-based. The note with it: Morganella morganii, 10^6 CFU/ml. In a few lines:
as §1

Assay [11] relates to P. vulgaris HX-19. The description is as above. The conditions noted are these: Proteus vulgaris, HX19, 16 h, P. vulgaris HX-19; 10^6 CFU/ml; read-out: Minimum Inhibitory Concentration (MIC). The format is cell-based. In a few lines:
as §1

The subject of assay [12] is P. vulgaris No. 33. The assay is described as above. Format: cell-based. The conditions noted are these: Proteus vulgaris, 10^6 CFU/ml. In outline: as §1
The subject of assay [13] is S. aureus 209P NIHJ-JC1. The description is as above. Format: cell-based. The conditions noted are these: Staphylococcus aureus, 16 h. In a few lines:
as §1

Assay [14] deals with S. marcescens IAM 1184. The assay is described as above. The note with it: Serratia marcescens, IAM1184, 16 h, read-out: Minimum Inhibitory Concentration (MIC). The format is cell-based. In a few lines:
as §1

Assay [15] has as its system S. marcescens No. 16-2. Described as above. The format is cell-based. The conditions noted are these: Serratia marcescens, NO.162, 16 h. In outline: as §1
Assay [16] deals with Ps. aeruginosa AK 109. The assay is described as above. Format: cell-based, Pseudomonas aeruginosa. The note with it: Pseudomonas aeruginosa, AK109, 16 h, Ps. aeruginosa AK 109; 10^6 CFU/ml; read-out: Minimum Inhibitory Concentration (MIC). In outline:
as §1

Assay [17] has as its system Ps. aeruginosa AKR17. The description is as above. Format: cell-based, Pseudomonas aeruginosa. The note with it: Pseudomonas aeruginosa, 16 h; Ps. aeruginosa AKR17; 10^6 CFU/ml; read-out: Minimum Inhibitory Concentration (MIC). In a few lines: as §1
Assay [18] relates to Ps. aeruginosa IF03445. The description is as above. The format is cell-based, Pseudomonas aeruginosa. The note with it: Pseudomonas aeruginosa, 16 h; Ps. aeruginosa IF03445; 10^6 CFU/ml; read-out: Minimum Inhibitory Concentration (MIC). In a few lines:
as §1

The test system of assay [19] is Ps. cepacia 23. The description is as above. The format is cell-based, Pseudomonas cepacia. The conditions noted are these: read-out: Minimum Inhibitory Concentration (MIC). In outline: as §1
Assay [20] relates to A. calcoaceticus No. 4. The description is as above. The conditions noted are these: Acinetobacter calcoaceticus, NO.4, 16 h, A. calcoaceticus No. 4; 10^6 CFU/ml; read-out: Minimum Inhibitory Concentration (MIC). Format: cell-based, Acinetobacter calcoaceticus. In outline:
as §1

[21] abbreviates: *E. cloacae Nek 39, lactamase-producing strain, read-out: Minimum Inhibitory Concentration (MIC).
Where [22] appears, read: 16 h, *E. coli GN5482, lactamase-producing strain, 10^6 CFU/ml, read-out: Minimum Inhibitory Concentration (MIC).
Setting [23] is: NIHJJC2, E. coli NIHJ JC2, 10^6 CFU/ml, 37° C., 16 hours, read-out: Minimum Inhibitory Concentration (MIC).
Where [24] appears, read: read-out: Minimum Inhibitory Concentration (MIC), K. pneumoniae PCI-602.
The mark [25] stands for this setting: 16 h, *M. morganii GN5407, lactamase-producing strain, read-out: Minimum Inhibitory Concentration (MIC).
The mark [26] stands for this setting: 16 h, *P. vulgaris No. 33, lactamase-producing strain, read-out: Minimum Inhibitory Concentration (MIC).
Where [27] appears, read: read-out: Minimum Inhibitory Concentration (MIC).
The mark [28] stands for this setting: S. marcescens IAM 1184, 10^6 CFU/ml.
Where [29] appears, read: NIHJJC2, 16 h, read-out: Minimum Inhibitory Concentration (MIC), E. coli NIHJ JC2, 10^6 CFU/ml, 37° C.
Where [30] appears, read: 16 h, *K. oxytoca GN10650, lactamase-producing strain, read-out: Minimum Inhibitory Concentration (MIC).
The mark [31] stands for this setting: K. pneumoniae PCI-602, read-out: Minimum Inhibitory Concentration (MIC).
[32] abbreviates: *S. marcescens No. 16-2, lactamase-producing strain, 10^6 CFU/ml, read-out: Minimum Inhibitory Concentration (MIC).

Converted amounts (≈) assume the structure as drawn. Counter-ions that a name gives are not always drawn. Like-named read-outs stand apart in the source and are kept apart here.

On to `CO/N=C(\C(=O)N[C@@H]1C(=O)N2C(C(=O)O)=C(CSc3nnc(-c4ccccc4)o3)CS[C@H]12)c1csc(N)n1` [compound 1, 7β-[2-(2-aminothiazol-4-yl)-2-methoxyiminoacetamido]-3-(5-phenyl-1,3,4-oxadiazol-2-yl)thiomethyl-3-cephem-4-carboxylic acid trifluoroacetate, reference compound], for which the MIC in [1] came out at 0.39 µg/mL; in assay [2], 0.39 µg/mL; in assay [3], 1.56 µg/mL; in assay [4] (setting [21]), 3.12 µg/mL; in assay [5] (setting [22]) it was 0.78 µg/mL; in assay [6] (setting [23]) it was 0.78 µg/mL. Moreover, the MIC in assay [7] (GN10650, 16 h, read-out: Minimum Inhibitory Concentration (MIC), *K. oxytoca GN10650, lactamase-producing strain) was 6.25 µg/mL; in [8], 1.56 µg/mL; in assay [9] (setting [24]), 0.0125 µg/mL; in assay [10] (setting [25]), 0.78 µg/mL; in [11] it was under 0.006 µg/mL; in assay [12] (setting [26]) it was 0.78 µg/mL. In addition, the MIC in assay [13] (setting [27]) is 0.39 µg/mL; in [14] (setting [28]), 1.56 µg/mL; in assay [15] (read-out: Minimum Inhibitory Concentration (MIC), *S. marcescens No. 16-2, lactamase-producing strain, 10^6 CFU/ml), 6.25 µg/mL; in [16], 50 µg/mL; in [17] it was over 100 µg/mL; in assay [18], over 100 µg/mL. The MIC in assay [19] (Burkholderia cepacia, 23, 16 h) is 12.5 µg/mL; in assay [20] it was 100 µg/mL.
Regarding `CO/N=C(\C(=O)N[C@@H]1C(=O)N2C(C(=O)O)=C(CSc3nnc(-c4ccc(O)cc4)o3)CS[C@H]12)c1csc(N)n1` [compound 2, reference compound], the MIC in assay [1] was 0.39 µg/mL (≈ 0.661 µM); in [2], 0.78 µg/mL (≈ 1.32 µM); in assay [3], 1.56 µg/mL (≈ 2.65 µM); in assay [4] (read-out: Minimum Inhibitory Concentration (MIC), *E. cloacae Nek 39, lactamase-producing strain), 6.25 µg/mL (≈ 10.6 µM); in assay [5] (GN5482, 16 h, read-out: Minimum Inhibitory Concentration (MIC), *E. coli GN5482, lactamase-producing strain, 10^6 CFU/ml), 0.78 µg/mL (≈ 1.32 µM); in assay [6] (setting [29]) it was 0.78 µg/mL (≈ 1.32 µM). For the same molecule, the MIC in assay [7] (setting [30]) was 25 µg/mL (≈ 42.4 µM); in assay [8], 1.56 µg/mL (≈ 2.65 µM); in assay [9] (setting [31]), 0.0125 µg/mL (≈ 0.0212 µM); in assay [10] (GN5407, 16 h, read-out: Minimum Inhibitory Concentration (MIC), *M. morganii GN5407, lactamase-producing strain), 0.78 µg/mL (≈ 1.32 µM); in assay [11], under 0.006 µg/mL; in [12] (NO.33, 16 h, read-out: Minimum Inhibitory Concentration (MIC), *P. vulgaris No. 33, lactamase-producing strain), 0.78 µg/mL (≈ 1.32 µM). The MIC in [13] (read-out: Minimum Inhibitory Concentration (MIC), S. aureus 209P NIHJ-JC1, 10^6 CFU/ml, 37° C., 16 hours) is 0.78 µg/mL (≈ 1.32 µM); in assay [14] it was 0.78 µg/mL (≈ 1.32 µM); in assay [15] (setting [32]), 25 µg/mL (≈ 42.4 µM); in assay [16] it was 50 µg/mL (≈ 84.8 µM); in [17] it was over 100 µg/mL; in assay [18], 100 µg/mL (≈ 170 µM). The MIC is 12.5 µg/mL (≈ 21.2 µM) in assay [19] (Burkholderia cepacia, 23, 16 h) and 50 µg/mL (≈ 84.8 µM) in assay [20].
Regarding `CO/N=C(\C(=O)N[C@@H]1C(=O)N2C(C(=O)O)=C(CSc3nnc(-c4ccccc4)s3)CS[C@H]12)c1csc(N)n1` [compound 5, 7β-[2-(2-aminothiazol-4-yl)-2-methoxyiminoacetamido]-3-(5-phenyl-1,3,4-thiadiazol-2-yl) thiomethyl-3-cephem-4-carboxylic acid trifluoroacetate, reference compound], the MIC in assay [1] is 0.2 µg/mL; in assay [2], 0.2 µg/mL; in assay [3], 0.78 µg/mL; in [4] (setting [21]), 3.12 µg/mL; in assay [5] (setting [22]), 0.39 µg/mL; in assay [6] (setting [23]) it was 0.39 µg/mL. The MIC in [7] (setting [30]) was found to be 6.25 µg/mL; in [8], 0.78 µg/mL; in assay [9] (setting [31]), 0.0125 µg/mL; in [10] (setting [25]), 0.78 µg/mL; in assay [11], 0.0125 µg/mL; in assay [12] (setting [26]), 0.39 µg/mL. Also, the MIC in assay [13] (S. aureus 209P NIHJ-JC1, 10^6 CFU/ml, 37° C., 16 hours, read-out: Minimum Inhibitory Concentration (MIC)) is 0.39 µg/mL; in assay [14] (setting [28]), 0.78 µg/mL; in [15] (setting [32]) it was 3.12 µg/mL; in assay [16], 50 µg/mL; in assay [17] it was over 100 µg/mL; in [18] it was 50 µg/mL. Moreover, the MIC is 3.12 µg/mL in assay [19] (Burkholderia cepacia, 16 h, Ps. cepacia 23, 10^6 CFU/ml) and 3.12 µg/mL in [20].
Turning to `CC(C)(O/N=C(\C(=O)N[C@@H]1C(=O)N2C(C(=O)O)=C(CSc3nnc(-c4ccccc4)s3)CS[C@H]12)c1csc(N)n1)C(=O)O` [compound 6, disodium 7β-[2-(2-aminothiazol-4-yl)-(1-carboxylate-1-methylethoxyimino)acetamido]-3-(5-phenyl-1,3,4-thiadiazol-2-yl) thiomethyl-3-cephem-4carboxylate, reference compound], the MIC in assay [1] was 3.12 µg/mL; in assay [2] it was 3.12 µg/mL; in assay [3], 6.25 µg/mL; in assay [4] (setting [21]) it was 50 µg/mL; in assay [5] (GN5482, 16 h, read-out: Minimum Inhibitory Concentration (MIC)), 3.12 µg/mL; in assay [6] (setting [29]) it was 3.12 µg/mL. Moreover, the MIC in assay [7] (setting [30]) is 6.25 µg/mL; in assay [8] it was 6.25 µg/mL; in assay [9] (setting [24]) it was 0.1 µg/mL; in [10] (setting [25]), 6.25 µg/mL; in assay [11] it was under 0.006 µg/mL; in [12] (setting [26]), 0.39 µg/mL. The MIC was 3.12 µg/mL in [13] (setting [27]); 1.56 µg/mL in assay [14] (setting [28]); 12.5 µg/mL in assay [15] (setting [27]); 100 µg/mL in [16]; over 100 µg/mL in assay [17]; 50 µg/mL in assay [18]. Further, the MIC in assay [19] (Burkholderia cepacia, 23, 16 h) is 12.5 µg/mL; in [20], 6.25 µg/mL.
